In the kinase profiling compilation of Christmann-Franck et al. (2016):

How the values were obtained:
Test in all cases: KINOMEscan competition binding
Details in all cases: compound 10.0 µM
FRK (human) = FRK (human) (UniProt P42685)
PIM1 (human) = PIM1 (human) (UniProt P11309)
STK16 (human) = STK16 (human) (UniProt O75716)
NEK6 (human) = NEK6 (human) (UniProt Q9HC98)
LATS2 (human) = LATS2 (human) (UniProt Q9NRM7)
RPS6KA4 KD1 (human) = RPS6KA4 KD1 (human) (UniProt O75676)
DAPK2 (human) = DAPK2 (human) (UniProt Q9UIK4)
LATS1 (human) = LATS1 (human) (UniProt O95835)
MYLK4 (human) = MYLK4 (human) (UniProt Q86YV6)
PRKD2 (human) = PRKD2 (human) (UniProt Q9BZL6)
PDGFRA (human) = PDGFRA (human) (UniProt P16234)
BRSK2 (human) = BRSK2 (human) (UniProt Q8IWQ3)
FLT1 (human) = FLT1 (human) (UniProt P17948)
MAP4K2 (human) = MAP4K2 (human) (UniProt Q12851)
AURKC (human) = AURKC (human) (UniProt Q9UQB9)
PIP5K1A (human) = PIP5K1A (human) (UniProt Q99755)
PRKD1 (human) = PRKD1 (human) (UniProt Q15139)
AKT2 (human) = AKT2 (human) (UniProt P31751)
MAPK11 (human) = MAPK11 (human) (UniProt Q15759)
[1] = test system: FLT3 (human), P36888 [D835Y]
ERBB4 (human) = ERBB4 (human) (UniProt Q15303)
YES1 (human) = YES1 (human) (UniProt P07947)
NLK (human) = NLK (human) (UniProt Q9UBE8)
[2] = test system: FGFR3 (human), P22607 [G697C]
PIK3CB (human) = PIK3CB (human) (UniProt P42338)
RPS6KA6 KD1 (human) = RPS6KA6 KD1 (human) (UniProt Q9UK32)
SRMS (human) = SRMS (human) (UniProt Q9H3Y6)
ACVR2A (human) = ACVR2A (human) (UniProt P27037)
AAK1 (human) = AAK1 (human) (UniProt Q2M2I8)
CDK8 (human) = CDK8 (human) (UniProt P49336)
[3] = test system: KIT (human), P10721 [V559D/V654A]
PRKAA2 (human) = PRKAA2 (human) (UniProt P54646)
PRKCD (human) = PRKCD (human) (UniProt Q05655)
NEK1 (human) = NEK1 (human) (UniProt Q96PY6)
TYRO3 (human) = TYRO3 (human) (UniProt Q06418)
BRSK1 (human) = BRSK1 (human) (UniProt Q8TDC3)
DDR1 (human) = DDR1 (human) (UniProt Q08345)
LYN (human) = LYN (human) (UniProt P07948)
CAMK1D (human) = CAMK1D (human) (UniProt Q8IU85)
PIK3CG (human) = PIK3CG (human) (UniProt P48736)
STK17A (human) = STK17A (human) (UniProt Q9UEE5)
[4] = test system: FLT3 (human), P36888 [D835H]

PIK3CB (human), sequence (P42338 whole entry, looked up): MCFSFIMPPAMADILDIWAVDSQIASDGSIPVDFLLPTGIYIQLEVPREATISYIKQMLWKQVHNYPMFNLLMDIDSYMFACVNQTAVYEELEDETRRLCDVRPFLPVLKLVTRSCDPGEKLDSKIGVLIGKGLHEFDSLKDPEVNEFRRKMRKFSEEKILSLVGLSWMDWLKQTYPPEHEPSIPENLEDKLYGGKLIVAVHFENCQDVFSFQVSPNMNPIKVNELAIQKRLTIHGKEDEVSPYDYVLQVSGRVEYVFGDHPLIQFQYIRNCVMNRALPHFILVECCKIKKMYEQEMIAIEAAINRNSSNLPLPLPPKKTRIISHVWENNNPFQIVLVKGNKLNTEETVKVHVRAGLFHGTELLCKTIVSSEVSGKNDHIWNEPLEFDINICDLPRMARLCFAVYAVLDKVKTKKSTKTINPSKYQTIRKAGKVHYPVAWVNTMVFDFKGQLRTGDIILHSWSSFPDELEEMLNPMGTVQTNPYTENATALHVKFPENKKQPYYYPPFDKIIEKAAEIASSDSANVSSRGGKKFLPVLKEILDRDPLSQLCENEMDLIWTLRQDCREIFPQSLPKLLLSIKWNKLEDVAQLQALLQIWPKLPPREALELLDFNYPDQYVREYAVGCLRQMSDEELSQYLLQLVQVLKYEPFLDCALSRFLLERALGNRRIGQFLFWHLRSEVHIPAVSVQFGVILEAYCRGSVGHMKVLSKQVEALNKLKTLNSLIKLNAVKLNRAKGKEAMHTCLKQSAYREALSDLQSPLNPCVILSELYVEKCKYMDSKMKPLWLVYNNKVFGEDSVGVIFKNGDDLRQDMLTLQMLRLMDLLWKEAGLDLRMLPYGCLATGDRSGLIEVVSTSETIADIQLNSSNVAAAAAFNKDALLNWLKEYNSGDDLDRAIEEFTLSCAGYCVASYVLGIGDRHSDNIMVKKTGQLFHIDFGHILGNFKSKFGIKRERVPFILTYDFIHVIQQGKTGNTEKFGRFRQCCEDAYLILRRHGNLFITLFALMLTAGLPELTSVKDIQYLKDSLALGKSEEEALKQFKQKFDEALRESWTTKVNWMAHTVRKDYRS
ACVR2A (human), sequence (P27037 whole entry, looked up): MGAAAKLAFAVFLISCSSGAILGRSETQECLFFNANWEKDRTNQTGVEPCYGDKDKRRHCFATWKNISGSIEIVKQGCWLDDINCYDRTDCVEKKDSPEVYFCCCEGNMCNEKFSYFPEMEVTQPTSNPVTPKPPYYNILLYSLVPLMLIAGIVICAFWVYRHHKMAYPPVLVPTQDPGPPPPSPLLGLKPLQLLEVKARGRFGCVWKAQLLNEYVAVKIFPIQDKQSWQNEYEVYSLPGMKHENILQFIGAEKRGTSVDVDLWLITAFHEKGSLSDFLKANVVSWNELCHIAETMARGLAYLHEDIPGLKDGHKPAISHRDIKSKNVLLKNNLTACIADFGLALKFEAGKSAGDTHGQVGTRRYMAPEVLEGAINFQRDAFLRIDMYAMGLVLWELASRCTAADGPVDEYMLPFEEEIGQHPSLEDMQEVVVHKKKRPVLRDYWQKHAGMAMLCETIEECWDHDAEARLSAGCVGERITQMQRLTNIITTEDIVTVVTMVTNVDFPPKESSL
PRKCD (human), sequence (Q05655 whole entry, looked up): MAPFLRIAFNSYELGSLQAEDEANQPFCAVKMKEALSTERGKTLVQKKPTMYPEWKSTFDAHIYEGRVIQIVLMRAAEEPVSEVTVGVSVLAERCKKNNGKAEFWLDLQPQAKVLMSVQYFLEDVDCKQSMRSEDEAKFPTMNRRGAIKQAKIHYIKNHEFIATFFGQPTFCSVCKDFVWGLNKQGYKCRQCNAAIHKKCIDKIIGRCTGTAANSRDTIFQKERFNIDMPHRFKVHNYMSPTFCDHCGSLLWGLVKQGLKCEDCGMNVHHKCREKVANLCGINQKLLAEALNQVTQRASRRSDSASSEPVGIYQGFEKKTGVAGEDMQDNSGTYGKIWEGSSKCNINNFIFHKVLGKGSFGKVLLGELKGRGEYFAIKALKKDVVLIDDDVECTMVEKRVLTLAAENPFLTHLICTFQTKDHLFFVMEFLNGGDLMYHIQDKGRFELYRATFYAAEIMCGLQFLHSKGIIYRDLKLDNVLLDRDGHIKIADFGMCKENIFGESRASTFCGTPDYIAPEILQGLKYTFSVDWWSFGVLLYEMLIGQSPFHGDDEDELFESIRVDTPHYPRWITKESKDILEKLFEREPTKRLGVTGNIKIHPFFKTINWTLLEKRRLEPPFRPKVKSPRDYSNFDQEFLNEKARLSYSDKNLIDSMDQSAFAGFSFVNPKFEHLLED
PIM1 (human), sequence (P11309 whole entry, looked up): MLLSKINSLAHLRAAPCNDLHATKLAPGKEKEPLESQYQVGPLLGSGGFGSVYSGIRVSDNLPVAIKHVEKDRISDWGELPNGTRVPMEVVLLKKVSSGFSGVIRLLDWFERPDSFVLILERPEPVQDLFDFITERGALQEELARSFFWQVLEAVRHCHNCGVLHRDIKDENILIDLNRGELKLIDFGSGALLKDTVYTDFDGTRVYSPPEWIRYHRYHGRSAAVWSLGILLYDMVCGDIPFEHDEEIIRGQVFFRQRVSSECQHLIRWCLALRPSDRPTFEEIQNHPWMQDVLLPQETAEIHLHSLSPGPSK
AAK1 (human), sequence (Q2M2I8 whole entry, looked up): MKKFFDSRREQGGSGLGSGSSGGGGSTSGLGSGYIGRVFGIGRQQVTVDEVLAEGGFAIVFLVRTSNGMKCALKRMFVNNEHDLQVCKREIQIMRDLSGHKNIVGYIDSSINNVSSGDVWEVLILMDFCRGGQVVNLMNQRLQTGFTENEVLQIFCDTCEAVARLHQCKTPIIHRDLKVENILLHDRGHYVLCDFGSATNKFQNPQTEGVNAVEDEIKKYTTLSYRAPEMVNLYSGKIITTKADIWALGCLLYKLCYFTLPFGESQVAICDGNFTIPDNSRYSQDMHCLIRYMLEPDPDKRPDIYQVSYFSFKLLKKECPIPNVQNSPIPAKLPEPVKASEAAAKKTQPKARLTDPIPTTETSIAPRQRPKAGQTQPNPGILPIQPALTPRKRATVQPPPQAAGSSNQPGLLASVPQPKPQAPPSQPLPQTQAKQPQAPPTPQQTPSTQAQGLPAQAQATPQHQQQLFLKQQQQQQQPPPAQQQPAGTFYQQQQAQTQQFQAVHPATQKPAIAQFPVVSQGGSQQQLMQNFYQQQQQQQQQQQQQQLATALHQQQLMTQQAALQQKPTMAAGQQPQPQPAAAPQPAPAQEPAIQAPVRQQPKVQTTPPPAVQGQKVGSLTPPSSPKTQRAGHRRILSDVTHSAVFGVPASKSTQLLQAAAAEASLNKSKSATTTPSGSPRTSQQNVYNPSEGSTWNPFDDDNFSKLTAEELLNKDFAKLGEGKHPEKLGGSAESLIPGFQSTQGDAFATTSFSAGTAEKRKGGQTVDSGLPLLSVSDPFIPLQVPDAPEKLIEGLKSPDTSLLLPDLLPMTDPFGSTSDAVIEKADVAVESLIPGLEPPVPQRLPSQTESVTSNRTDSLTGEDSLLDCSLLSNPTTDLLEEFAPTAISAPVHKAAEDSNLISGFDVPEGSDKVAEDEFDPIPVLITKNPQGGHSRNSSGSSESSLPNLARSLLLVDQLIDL
KIT (human), P10721 [V559D/V654A], sequence (P10721 whole entry V559D/V654A, looked up): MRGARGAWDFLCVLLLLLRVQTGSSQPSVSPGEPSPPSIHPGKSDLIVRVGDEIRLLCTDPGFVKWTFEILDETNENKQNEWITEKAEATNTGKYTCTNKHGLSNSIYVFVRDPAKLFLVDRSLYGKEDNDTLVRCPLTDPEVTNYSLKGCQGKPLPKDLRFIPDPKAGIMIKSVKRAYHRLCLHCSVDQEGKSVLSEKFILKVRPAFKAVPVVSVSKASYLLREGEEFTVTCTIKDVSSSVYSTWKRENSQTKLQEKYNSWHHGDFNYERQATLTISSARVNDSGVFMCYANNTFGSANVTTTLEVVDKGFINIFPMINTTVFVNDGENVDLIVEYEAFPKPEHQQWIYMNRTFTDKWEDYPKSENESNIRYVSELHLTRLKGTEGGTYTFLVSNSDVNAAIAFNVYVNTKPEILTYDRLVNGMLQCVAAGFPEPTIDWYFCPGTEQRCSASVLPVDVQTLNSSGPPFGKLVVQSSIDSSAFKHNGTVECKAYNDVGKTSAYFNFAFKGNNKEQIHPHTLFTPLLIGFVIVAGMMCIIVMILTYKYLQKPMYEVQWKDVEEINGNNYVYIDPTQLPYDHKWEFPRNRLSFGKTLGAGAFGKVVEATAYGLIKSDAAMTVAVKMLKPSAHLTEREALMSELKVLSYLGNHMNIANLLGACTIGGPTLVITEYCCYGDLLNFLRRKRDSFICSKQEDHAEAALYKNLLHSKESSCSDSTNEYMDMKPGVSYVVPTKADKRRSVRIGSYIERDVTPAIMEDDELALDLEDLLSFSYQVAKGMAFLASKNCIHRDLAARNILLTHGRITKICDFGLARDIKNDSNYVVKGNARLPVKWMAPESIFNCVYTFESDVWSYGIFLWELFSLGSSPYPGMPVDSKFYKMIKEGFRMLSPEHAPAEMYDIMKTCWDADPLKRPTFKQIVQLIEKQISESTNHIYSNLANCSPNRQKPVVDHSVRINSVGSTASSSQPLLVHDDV
AKT2 (human), sequence (P31751 whole entry, looked up): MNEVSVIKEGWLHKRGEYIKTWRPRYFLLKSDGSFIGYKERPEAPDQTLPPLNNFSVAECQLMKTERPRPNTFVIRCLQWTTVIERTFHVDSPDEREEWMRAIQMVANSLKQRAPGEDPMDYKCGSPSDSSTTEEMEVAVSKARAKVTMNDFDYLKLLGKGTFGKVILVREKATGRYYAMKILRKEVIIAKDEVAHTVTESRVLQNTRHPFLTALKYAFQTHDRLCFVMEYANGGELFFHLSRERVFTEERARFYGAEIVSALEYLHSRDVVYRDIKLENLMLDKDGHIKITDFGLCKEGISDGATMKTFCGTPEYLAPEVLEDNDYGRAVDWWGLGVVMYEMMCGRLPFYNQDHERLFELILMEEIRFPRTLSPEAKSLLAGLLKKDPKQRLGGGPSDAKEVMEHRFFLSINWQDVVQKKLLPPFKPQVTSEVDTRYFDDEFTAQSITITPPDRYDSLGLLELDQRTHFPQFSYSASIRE

CCN1CCN(Cc2ccc(NC(=O)c3ccc(C)c(/C=C/c4cnc(Nc5cc(N6CCNCC6)nc(C)n5)cn4)c3)cc2C(F)(F)F)CC1
kinase still bound, per cent of control (FRK (human)): 7% | kinase still bound, per cent of control (PIM1 (human)): 76% | kinase still bound, per cent of control (STK16 (human)): 100% | kinase still bound, per cent of control (NEK6 (human)): 100% | kinase still bound, per cent of control (LATS2 (human)): 36% | kinase still bound, per cent of control (RPS6KA4 KD1 (human)): 100% | kinase still bound, per cent of control (DAPK2 (human)): 66% | kinase still bound, per cent of control (LATS1 (human)): 55% | kinase still bound, per cent of control (MYLK4 (human)): 100% | kinase still bound, per cent of control (PRKD2 (human)): 76% | kinase still bound, per cent of control (PDGFRA (human)): 2.8% | kinase still bound, per cent of control (BRSK2 (human)): 100% | kinase still bound, per cent of control (FLT1 (human)): 27% | kinase still bound, per cent of control (MAP4K2 (human)): 0.1% | kinase still bound, per cent of control (AURKC (human)): 45% | kinase still bound, per cent of control (PIP5K1A (human)): 86% | kinase still bound, per cent of control (PRKD1 (human)): 90% | kinase still bound, per cent of control (AKT2 (human)): 46% | kinase still bound, per cent of control (MAPK11 (human)): 3.2% | kinase still bound, per cent of control [1]: 3.2% | kinase still bound, per cent of control (ERBB4 (human)): 7% | kinase still bound, per cent of control (YES1 (human)): 1.4% | kinase still bound, per cent of control (NLK (human)): 65% | kinase still bound, per cent of control [2]: 23% | kinase still bound, per cent of control (PIK3CB (human)): 85% | kinase still bound, per cent of control (RPS6KA6 KD1 (human)): 100% | kinase still bound, per cent of control (SRMS (human)): 8.2% | kinase still bound, per cent of control (ACVR2A (human)): 100% | kinase still bound, per cent of control (AAK1 (human)): 84% | kinase still bound, per cent of control (CDK8 (human)): 3.6% | kinase still bound, per cent of control [3]: 3.7% | kinase still bound, per cent of control (PRKAA2 (human)): 14% | kinase still bound, per cent of control (PRKCD (human)): 100% | kinase still bound, per cent of control (NEK1 (human)): 91% | kinase still bound, per cent of control (TYRO3 (human)): 37% | kinase still bound, per cent of control (BRSK1 (human)): 91% | kinase still bound, per cent of control (DDR1 (human)): 0% | kinase still bound, per cent of control (LYN (human)): 1% | kinase still bound, per cent of control (CAMK1D (human)): 100% | kinase still bound, per cent of control (PIK3CG (human)): 100% | kinase still bound, per cent of control (STK17A (human)): 11% | kinase still bound, per cent of control [4]: 2.4%

COc1cc(N2CCC(N3CCN(C)CC3)CC2)ccc1Nc1ncc(Cl)c(Nc2ccccc2S(=O)(=O)C(C)C)n1
kinase still bound, per cent of control (FRK (human)): 0.2% | kinase still bound, per cent of control (PIM1 (human)): 40% | kinase still bound, per cent of control (STK16 (human)): 2.8% | kinase still bound, per cent of control (NEK6 (human)): 1.8% | kinase still bound, per cent of control (LATS2 (human)): 17% | kinase still bound, per cent of control (RPS6KA4 KD1 (human)): 4.4% | kinase still bound, per cent of control (DAPK2 (human)): 12% | kinase still bound, per cent of control (LATS1 (human)): 32% | kinase still bound, per cent of control (MYLK4 (human)): 40% | kinase still bound, per cent of control (PRKD2 (human)): 0.05% | kinase still bound, per cent of control (PDGFRA (human)): 0.85% | kinase still bound, per cent of control (BRSK2 (human)): 0.5% | kinase still bound, per cent of control (FLT1 (human)): 2.8% | kinase still bound, per cent of control (MAP4K2 (human)): 9.4% | kinase still bound, per cent of control (AURKC (human)): 0.1% | kinase still bound, per cent of control (PIP5K1A (human)): 1.3% | kinase still bound, per cent of control (PRKD1 (human)): 1% | kinase still bound, per cent of control (AKT2 (human)): 40% | kinase still bound, per cent of control (MAPK11 (human)): 40% | kinase still bound, per cent of control (ERBB4 (human)): 1.2% | kinase still bound, per cent of control (YES1 (human)): 0.1% | kinase still bound, per cent of control (NLK (human)): 40% | kinase still bound, per cent of control [2]: 0.25% | kinase still bound, per cent of control (PIK3CB (human)): 40% | kinase still bound, per cent of control (RPS6KA6 KD1 (human)): 1.1% | kinase still bound, per cent of control (SRMS (human)): 0% | kinase still bound, per cent of control (ACVR2A (human)): 12% | kinase still bound, per cent of control (AAK1 (human)): 2.8% | kinase still bound, per cent of control (CDK8 (human)): 40% | kinase still bound, per cent of control [3]: 7.4% | kinase still bound, per cent of control (PRKAA2 (human)): 0.15% | kinase still bound, per cent of control (PRKCD (human)): 28% | kinase still bound, per cent of control (NEK1 (human)): 40% | kinase still bound, per cent of control (TYRO3 (human)): 24% | kinase still bound, per cent of control (BRSK1 (human)): 1.2% | kinase still bound, per cent of control (DDR1 (human)): 0.05% | kinase still bound, per cent of control (LYN (human)): 5% | kinase still bound, per cent of control (PIK3CG (human)): 40% | kinase still bound, per cent of control (STK17A (human)): 5.9%

CCOc1cc(N2CCC(N3CCCCC3)CC2)ccc1Nc1nc(Nc2ccccc2S(=O)(=O)C(C)C)c2cn[nH]c2n1
kinase still bound, per cent of control (FRK (human)): 18% | kinase still bound, per cent of control (PIM1 (human)): 100% | kinase still bound, per cent of control (STK16 (human)): 76% | kinase still bound, per cent of control (NEK6 (human)): 100% | kinase still bound, per cent of control (LATS2 (human)): 88% | kinase still bound, per cent of control (RPS6KA4 KD1 (human)): 100% | kinase still bound, per cent of control (DAPK2 (human)): 64% | kinase still bound, per cent of control (LATS1 (human)): 100% | kinase still bound, per cent of control (MYLK4 (human)): 100% | kinase still bound, per cent of control (PRKD2 (human)): 96% | kinase still bound, per cent of control (PDGFRA (human)): 100% | kinase still bound, per cent of control (BRSK2 (human)): 94% | kinase still bound, per cent of control (FLT1 (human)): 100% | kinase still bound, per cent of control (MAP4K2 (human)): 97% | kinase still bound, per cent of control (AURKC (human)): 100% | kinase still bound, per cent of control (PIP5K1A (human)): 39% | kinase still bound, per cent of control (PRKD1 (human)): 73% | kinase still bound, per cent of control (AKT2 (human)): 100% | kinase still bound, per cent of control (MAPK11 (human)): 100% | kinase still bound, per cent of control [1]: 59% | kinase still bound, per cent of control (ERBB4 (human)): 7.8% | kinase still bound, per cent of control (YES1 (human)): 84% | kinase still bound, per cent of control (NLK (human)): 97% | kinase still bound, per cent of control [2]: 97% | kinase still bound, per cent of control (PIK3CB (human)): 17% | kinase still bound, per cent of control (RPS6KA6 KD1 (human)): 23% | kinase still bound, per cent of control (SRMS (human)): 27% | kinase still bound, per cent of control (ACVR2A (human)): 100% | kinase still bound, per cent of control (AAK1 (human)): 69% | kinase still bound, per cent of control (CDK8 (human)): 100% | kinase still bound, per cent of control [3]: 100% | kinase still bound, per cent of control (PRKAA2 (human)): 100% | kinase still bound, per cent of control (PRKCD (human)): 100% | kinase still bound, per cent of control (NEK1 (human)): 100% | kinase still bound, per cent of control (TYRO3 (human)): 100% | kinase still bound, per cent of control (BRSK1 (human)): 100% | kinase still bound, per cent of control (DDR1 (human)): 100% | kinase still bound, per cent of control (LYN (human)): 100% | kinase still bound, per cent of control (CAMK1D (human)): 1% | kinase still bound, per cent of control (PIK3CG (human)): 100% | kinase still bound, per cent of control (STK17A (human)): 100% | kinase still bound, per cent of control [4]: 74%

CCN1CCN(Cc2ccc(NC(=O)c3ccc(C)c(Oc4ccnc5[nH]ccc45)c3)cc2C(F)(F)F)CC1
kinase still bound, per cent of control (FRK (human)): 0.7% | kinase still bound, per cent of control (LATS2 (human)): 13% | kinase still bound, per cent of control (PDGFRA (human)): 0.6% | kinase still bound, per cent of control (FLT1 (human)): 1.6% | kinase still bound, per cent of control (MAP4K2 (human)): 0.3% | kinase still bound, per cent of control (MAPK11 (human)): 0% | kinase still bound, per cent of control [1]: 14% | kinase still bound, per cent of control (ERBB4 (human)): 28% | kinase still bound, per cent of control (YES1 (human)): 1.6% | kinase still bound, per cent of control (NLK (human)): 14% | kinase still bound, per cent of control [2]: 16% | kinase still bound, per cent of control (SRMS (human)): 4.6% | kinase still bound, per cent of control (CDK8 (human)): 3.9% | kinase still bound, per cent of control [3]: 2.7% | kinase still bound, per cent of control (DDR1 (human)): 0.05% | kinase still bound, per cent of control (LYN (human)): 0.75% | kinase still bound, per cent of control (CAMK1D (human)): 6.2% | kinase still bound, per cent of control [4]: 1.2%
